In patent US9707202B2, “Certain chemical entities, compositions, and methods” (NEUPHARMA, INC., priority 2011, dated 2017):
pIC50: −log10 of the molar value. In brackets after ≈: the same amount, converted by molar mass.

Columns and labels:
A549 cells = experiment: Inhibition of cell growth in tumor cells (MTT assay); format: cell-based; conditions: Homo sapiens, 72 h compound exposure
Method: Inhibition of cell growth by compounds was measured using MTT assay (Mosmann, T., Journal of Immunological Methods, 1983, 65, 55-63). Tumor cell lines were purchased from ATCC (American Type Culture Collection, Manassas, Va.). All cell lines were maintained in RPMI 1640 (Hyclone) supplemented with 10% fetal bovine serum (FBS, Hyclone), glutamine (2 mM, Hyclone), and antibiotics (penicillin 100 U/mL and streptomycin 50 µg/mL) at 37° C. in a humidified atmosphere of 5% CO2 in air. Taxol (positive control, Sigma) and compounds were dissolved in DMSO (Sigma), and the final concentration of DMSO in the medium was 1%. Tumor cells were plated in 96-well plates at densities from 4000 cells/well of a 96-well plate and allowed to adhere/grow for 24 h. They were then treated with various concentrations of drug for 72 h. 3-(4,5-Dimethylthiazol-2-yl)-2,5-diphenyltetrazolium bromide (MTT, Sigma) was used to determine the number of viable cells at the time of compound addition and the number of cells remaining after 72 h compound exposure. The number of cells remaining after 72 h was compared to the number of viable cells at the time of compound addition by measuring the absorbance at 570 nm, allowing for the calculation of growth inhibition.
All concentrations of compounds were tested in triplicate and controls were averaged over 4 wells. IC50 was calculated by plotting the concentration of compound vs the percentage of inhibition in treated wells using GraphPad Prism 5.

[1] = Equilibrium solubility in aqueous buffer; format: physicochemical; conditions: thermodynamic from solid, NaOAc/AcOH buffer (100 mM, pH 5.0), shaken at rt for 24 h, HPLC UV
Method: The equilibrium solubility of compounds was measured in aqueous buffer. Excess amount of solid compound was added into buffer solution and the sample was briefly sonicated and then shaken at rt for 24 h. The sample was filtered and the concentration was analyzed by HPLC UV. A standard solution at 0.2 mg/mL was prepared in methanol or acetonitrile for each compound and used as an external standard for quantification.

| solubility at 24 h ([1]; aqueous buffer (NaOAc/AcOH)) [µg/mL] | Compound | pIC50 (A549 cells) | solubility at 24 h [1] [µg/mL] |
| --- | --- | --- | --- |
|  | COc1ccc(/C=C/C(=O)CC(=O)/C=C/c2ccc(OC(=O)N3CCN(C)CC3)c(OC)c2)cc1OC [4-((1E,6E)-7-(3,4-dimethoxyphenyl)-3,5-dioxohepta-1,6-dien-1-yl)-2-methoxyphenyl 4-methylpiperazine-1-carboxylate] | 5.37 | 320 (≈ 629 µM) |
|  | COc1ccc(/C=C/C(=O)CC(=O)/C=C/c2ccc(OC(=O)N(C)C)c(OC)c2)cc1OC [4-((1E,6E)-7-(3,4-dimethoxyphenyl)-3,5-dioxohepta-1,6-dien-1-yl)-2-methoxyphenyl dimethylcarbamate] | 4.97 |  |
|  | COc1ccc(/C=C/C(=O)CC(=O)/C=C/c2ccc(OC(=O)N3CCOCC3)c(OC)c2)cc1OC [4-((1E,6E)-7-(3,4-dimethoxyphenyl)-3,5-dioxohepta-1,6-dien-1-yl)-2-methoxyphenyl morpholine-4-carboxylate] | 5.34 |  |
|  | COc1cc(/C=C/C(=O)CC(=O)/C=C/c2ccc(OC(=O)N(C)C)c(OC)c2)ccc1OCCO [4-((1E,6E)-7-(4-(2-hydroxyethoxy)-3-methoxyphenyl)-3,5-dioxohepta-1,6-dien-1-yl)-2-methoxyphenyl dimethylcarbamate] | 5.04 |  |
|  | COc1cc(/C=C/C(=O)CC(=O)/C=C/c2ccc(OC(=O)N3CCCCC3)c(OC)c2)ccc1OCCO [4-((1E,6E)-7-(4-(2-hydroxyethoxy)-3-methoxyphenyl)-3,5-dioxohepta-1,6-dien-1-yl)-2-methoxyphenyl piperidine-1-carboxylate] | 4.96 |  |
|  | COc1cc(/C=C/C(=O)CC(=O)/C=C/c2ccc(OC(=O)N3CCN(C)CC3)c(OC)c2)ccc1O [4-((1E,6E)-7-(4-hydroxy-3-methoxyphenyl)-3,5-dioxohepta-1,6-dien-1-yl)-2-methoxyphenyl 4-methylpiperazine-1-carboxylate] | 5.42 | 18 (≈ 36.4 µM) |
|  | COc1cc(/C=C/C(=O)CC(=O)/C=C/c2ccc(OC(=O)N(C)C)c(OC)c2)ccc1O [4-((1E,6E)-7-(4-hydroxy-3-methoxyphenyl)-3,5-dioxohepta-1,6-dien-1-yl)-2-methoxyphenyl dimethylcarbamate] | 5.64 |  |
|  | COc1cc(/C=C/C(=O)CC(=O)/C=C/c2ccc(OC(=O)N3CCOCC3)c(OC)c2)ccc1O [4-((1E,6E)-7-(4-hydroxy-3-methoxyphenyl)-3,5-dioxohepta-1,6-dien-1-yl)-2-methoxyphenyl morpholine-4-carboxylate] | 5.14 |  |
|  | COc1cc(/C=C/C(=O)CC(=O)/C=C/c2ccc(OC(=O)N3CCNCC3)c(OC)c2)ccc1O [4-((1E,6E)-7-(4-hydroxy-3-methoxyphenyl)-3,5-dioxohepta-1,6-dien-1-yl)-2-methoxyphenyl piperazine-1-carboxylate] | 5.04 | 1390 (≈ 2890 µM) |
|  | COc1cc(/C=C/C(=O)CC(=O)/C=C/c2ccc(OC(=O)N3CCCCC3)c(OC)c2)ccc1O [4-((1E,6E)-7-(4-hydroxy-3-methoxyphenyl)-3,5-dioxohepta-1,6-dien-1-yl)-2-methoxyphenyl piperidine-1-carboxylate] | 5.10 |  |
| < 1 | COc1cc(/C=C/C(=O)CC(=O)/C=C/c2ccc(O)c(OC)c2)ccc1O [Curcumin, reference compound] | < 4.52 |  |
